Measurements as given in patent publication US20130309218A1, “PROCESS FOR PRODUCING AQUEOUS SOLUTION CONTAINING FAT-SOLUBLE SUBSTANCE” (WACKER CHEMIE AG, priority 2011, published 2013).

How the values were obtained:
Type in all cases: physicochemical
[1] = B-1: solubility of CoQ10 with NaTC (HPLC); conditions: 50 mM MES buffer, 2 hours at 40° C.
Method: 1450 μL each of a 50 mM 2-morpholinoethanesulfonic acid (MES) buffer solution (containing 300 mM NaCl, 140 mM KSCN and 5 mM CaCl2) or the aforementioned buffer solution into which a super solubilizer (0.42% (w/v) NaTC, 0.83% (w/v) NaTC or 1.66% (w/v) NaTC) was dissolved were added to 57 mg of CAVAMAX® W8 CoQ10 (5 mg water content, 12.14 mg CoQ10 and 40 mg γCD) and sonication was performed for several seconds using an ultrasonic apparatus (Ikeda Scientific Co., Ltd.) and left to stand for 2 hours at 40° C.
As a comparison, 2 mL of 50 mM 2-morpholinoethanesulfonic acid (MES) buffer solution (containing 300 mM NaCl, 140 mM KSCN and 5 mM CaCl2) (in lieu of NaTC) was added to 12.14 mg of CoQ10 (in lieu of CAVAMAX® W8 CoQ10), and the mixture was prepared as described above. The resulting mixture was left to stand and filtered and the resulting solution was analyzed using HPLC.

[2] = B-2: solubility of CoQ10 with GZK2 (HPLC); conditions: 12 mg CoQ10 (as complex or alone) in 3 mL purified water, sonicated 1 hour
Method: 0 mg, 6.2 mg, 12.5 mg, 25 mg or 50 mg of GZK2 was mixed into 60 mg of CAVAMAX® W8 CoQ10 (containing 12 mg of CoQ10) as a super solubilizer and 3 mL purified water was added. The resulting mixture was then sonicated for 1 hour using an ultrasonic apparatus (Ikeda Scientific Co., Ltd.).
As a comparison, GZK2 was incorporated into 12 mg of CoQ10 as a super solubilizer and the mixture was prepared as described above. The resulting mixture was left to stand and filtered and the resulting solution was analyzed using HPLC.

[3] = Follow-up HPLC measurement of curcumin concentration in αCD aqueous solution comparable to Patent Document 2, Table 4
Method: Additionally, given that the maximum value of the concentration of the standard solution which was used as a reference was 100 μg/mL (Patent Document 2, Table 3), the concentration is outside the measurement range of the standard and is likely unreliable.

[4] = A-1 Preparation Method 1: solubility of curcumin with NaTC (HPLC); conditions: 50 mM MES buffer, sonicated, 2 hours at 40° C., 0.2 μm filter
Method: The mixture was then filtered and the solution obtained was analyzed via HPLC as described above.

[5] = A-2: solubility of curcumin with GZ (HPLC); conditions: 50 mM MES buffer, 2 hours at 40° C.
[6] = A-4: solubility of curcumin with quillaja saponin (HPLC); conditions: total 2 mL 10% aqueous ethanol, 1 hour at 40° C.
Method: The mixture was then allowed to stand, was filtered and the resulting solution was analyzed using HPLC.

[7] = A-5: solubility of curcumin with polysorbate (HPLC); conditions: Super Solubilizer: None (comparison); 1.4 mg curcumin in 2 mL ion-exchanged water
Method: This mixture was then sonicated for several seconds using an ultrasonic apparatus (Ikeda Scientific Co., Ltd.) and left to stand for 10 min at 40° C.
(§1) The resulting mixture was left to stand and filtered and the resulting solution was analyzed using HPLC.

[8] = A-6: solubility of curcumin with methylcellulose (HPLC); conditions: Super Solubilizer: None (comparison); 1.4 mg curcumin in 2 mL ion-exchanged water
Method: This mixture was then mixed by inversion.
as §1

[9] = A-8: solubility of curcumin with Na glycocholate (HPLC); conditions: Amount of Na Glycocholate Added 2.0% (w/v); 2 mL water; filtered immediately following mixing
[10] = H-1: solubility of CAPE with NaTC (HPLC); conditions: 1.4 mg CAPE (as complex or alone) in 5 mL water, sonicated 3 minutes
Method: As a comparison, water or a solution prepared by dissolving a super solubilizer (1.0% (w/v) NaTC) in water was combined with 1.4 mg of CAPE (in lieu of CAPE-γCD complex) and the mixture was prepared as described above. The resulting mixture was left to stand and filtered and the resulting solution was analyzed using HPLC.

## COC1=C(OC)C(=O)C(C/C=C(\C)CC/C=C(\C)CC/C=C(\C)CC/C=C(\C)CC/C=C(\C)CC/C=C(\C)CC/C=C(\C)CC/C=C(\C)CC/C=C(\C)CCC=C(C)C)=C(C)C1=O [CoQ10, coenzyme Q10]
[1]; NaTC concentration 0% (w/v)
  CoQ10 Concentration: 0 µg/mL
[1]; NaTC concentration 0.42% (w/v)
  CoQ10 Concentration: 0 µg/mL
[1]; NaTC concentration 0.83% (w/v)
  CoQ10 Concentration: 0 µg/mL
[1]; NaTC concentration 1.66% (w/v)
  CoQ10 Concentration: 1.52 µg/mL
[2]; Amount of GZK2 Added 0 mg
  CoQ10 Concentration: 0.2 µg/mL
[2]; Amount of GZK2 Added 6.2 mg
  CoQ10 Concentration: 3.6 µg/mL
[2]; Amount of GZK2 Added 12.5 mg
  CoQ10 Concentration: 9.1 µg/mL
[2]; Amount of GZK2 Added 25 mg
  CoQ10 Concentration: 3.9 µg/mL
[2]; Amount of GZK2 Added 50 mg
  CoQ10 Concentration: 3.9 µg/mL

## COc1cc(/C=C/C(=O)CC(=O)/C=C/c2ccc(O)c(OC)c2)ccc1O [Curcumin, curcumin]
[3]; content of αCD 1%
  concentration of curcumin: 1.47 µg/mL
[3]; content of αCD 2.5%
  concentration of curcumin: 3.63 µg/mL
[3]; content of αCD 5%
  concentration of curcumin: 8.29 µg/mL
[4]; NaTC concentration 0% (w/v)
  Curcumin Concentration: 3.95 µg/mL
[4]; NaTC concentration 0.83% (w/v)
  Curcumin Concentration: 35.35 µg/mL
[4]; NaTC concentration 1.66% (w/v)
  Curcumin Concentration: 219.2 µg/mL
[5]; GZ Concentration 0% (w/v)
  Curcumin Concentration: 3.95 µg/mL
[5]; GZ Concentration 3.50% (w/v)
  Curcumin Concentration: 98.19 µg/mL
[6]; Amount of QS Added 0 μL
  Curcumin Concentration: 0.02 µg/mL
[6]; Amount of QS Added 200 μL
  Curcumin Concentration: 16.81 µg/mL
[6]; Amount of QS Added 1000 μL
  Curcumin Concentration: 122.96 µg/mL
[7]
  Curcumin Concentration: 0.01 µg/mL
[8]
  Curcumin Concentration: 0.01 µg/mL
[9]
  Curcumin Concentration: 12.31 µg/mL

## O=C(/C=C/c1ccc(O)c(O)c1)OCCc1ccccc1 [CAPE, caffeic acid phenethyl ester]
[10]; NaTC concentration 0% (w/v)
  CAPE Concentration: 16 µg/mL
[10]; NaTC concentration 1.0% (w/v)
  CAPE Concentration: 155 µg/mL
